{"source": "patent US4659804A", "about": "“(Bis-1,7-S-acetamidomethyl-L-cysteine)salmon calcitonin” (Armour Pharmaceutical Company, priority 1984, dated 1987)", "tested_on": "serum calcium concentration", "test": "Biological assay of calcitonin analogs in vivo: reduction of serum calcium concentration, 2×2 parallel line assay", "parameters": "species or system Rats", "conditions": "standard salmon calcitonin used in the assay", "description": "The biological potency of [1,7-Di-Cys(Acm)]salmon calcitonin was determined by comparing the reduction of serum calcium concentration which followed administration by graded doses of [1,7-Di-Cys(Acm)]SCT and synthetic salmon calcitonin standard. Rats were divided into four groups of seven animals, and each group was assigned at random to a dose of standard or test solution. Low and high doses were chosen from the linear portion of the dose-response curve. For the salmon calcitonin standard, the values were 0.7 and 2.1 mcg. peptide/100 g. body weight (BW). This dose approximates 3 and 9 MU/100 g. BW. Peptides were given by subcutaneous injection (0.2 ml/100 g. BW) and blood was withdrawn 1 hour later for serum calcium determination. Sera are processed and analyzed within two hours of collection. […]. Results were analyzed by a 2×2 parallel line assay [Gaddum, J. H., J. Pharm. Pharmacol., 6, 345 (1953)]. The standard salmon calcitonin used was independently determined to contain greater than 4,000 IU/mg. [1,7-Di-Cys(Acm)]SCT assayed at 4250 IU/mg."}
{"smiles": "CC(C)C[C@H](NC(=O)[C@H](CCCCN)NC(=O)CNC(=O)[C@H](CC(C)C)NC(=O)[C@@H](NC(=O)[C@@H]1CSSC[C@H](N)C(=O)N[C@@H](CO)C(=O)N[C@@H](CC(N)=O)C(=O)N[C@@H](CC(C)C)C(=O)N[C@@H](CO)C(=O)N[C@@H]([C@@H](C)O)C(=O)N1)C(C)C)C(=O)N[C@@H](CO)C(=O)N[C@@H](CCC(N)=O)C(=O)N[C@@H](CCC(=O)O)C(=O)N[C@@H](CC(C)C)C(=O)N[C@@H](Cc1c[nH]cn1)C(=O)N[C@@H](CCCCN)C(=O)N[C@@H](CC(C)C)C(=O)N[C@@H](CCC(N)=O)C(=O)N[C@H](C(=O)N[C@@H](Cc1ccc(O)cc1)C(=O)N1CCC[C@H]1C(=O)N[C@@H](CCCNC(=N)N)C(=O)N[C@H](C(=O)N[C@@H](CC(N)=O)C(=O)N[C@H](C(=O)NCC(=O)N[C@@H](CO)C(=O)NCC(=O)N[C@H](C(=O)N1CCC[C@H]1C(N)=O)[C@@H](C)O)[C@@H](C)O)[C@@H](C)O)[C@@H](C)O", "note": "[standard salmon calcitonin, Salmon calcitonin]", "values": [{"measurement": "biological potency of the standard, independently determined", "result": "greater than 4,000 IU/mg"}]}
